Source: US20230113037A1 (Bayer Aktiengesellschaft, priority 2019, published 2023)
Several values for one entry are separate records, joined by “and”; a condition that tells them apart may be missing. Equal entries are not always repeated. Where two headings read alike, the source gives them in different places.

How the values were obtained:
AHR [1] = biological target: T1, AHR (Mus musculus, UniProt P30561); experiment: In vitro assay 3: antagonism in mouse cell line (AHR transactivation, firefly luciferase reporter, kynurenic acid prestimulated); type: cell-based; settings: 200 μM kynurenic acid, 20 hours, read-out: AHR Antagonism Mouse IC50
T1 sequence (P30561 1-848 P471L/N533S/M589L): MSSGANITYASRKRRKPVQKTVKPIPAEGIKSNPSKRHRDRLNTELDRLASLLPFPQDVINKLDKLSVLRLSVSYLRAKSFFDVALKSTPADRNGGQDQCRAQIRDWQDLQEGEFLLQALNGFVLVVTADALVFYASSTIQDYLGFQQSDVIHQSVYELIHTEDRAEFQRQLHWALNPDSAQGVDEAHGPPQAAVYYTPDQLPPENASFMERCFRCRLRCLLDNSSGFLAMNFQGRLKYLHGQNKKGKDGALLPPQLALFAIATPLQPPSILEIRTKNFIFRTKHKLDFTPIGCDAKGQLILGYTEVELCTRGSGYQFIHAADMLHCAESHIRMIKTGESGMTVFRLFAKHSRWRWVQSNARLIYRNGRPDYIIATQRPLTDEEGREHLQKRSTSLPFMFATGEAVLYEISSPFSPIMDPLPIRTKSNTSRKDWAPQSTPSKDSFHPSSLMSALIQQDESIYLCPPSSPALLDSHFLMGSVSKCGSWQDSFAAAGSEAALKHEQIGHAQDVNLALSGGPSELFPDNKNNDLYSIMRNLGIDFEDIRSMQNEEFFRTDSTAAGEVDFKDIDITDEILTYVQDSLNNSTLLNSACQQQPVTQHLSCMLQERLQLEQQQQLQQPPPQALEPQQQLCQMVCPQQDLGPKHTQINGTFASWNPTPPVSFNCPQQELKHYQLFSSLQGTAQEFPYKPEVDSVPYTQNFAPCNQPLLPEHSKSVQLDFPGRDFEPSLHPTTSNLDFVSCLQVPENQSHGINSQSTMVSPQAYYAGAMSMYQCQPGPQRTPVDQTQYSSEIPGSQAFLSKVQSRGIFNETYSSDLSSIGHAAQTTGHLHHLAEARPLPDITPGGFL
How it was run: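 Mouse cells stably carrying a DRE-driven AHR-inducible firefly luciferase reporter were prestimulated with the endogenous agonist kynurenic acid before compound addition. Luciferase read by SteadyGlo; cells without kynurenic acid served as full-inhibition control, with normalization to positive and negative controls. Repeat tests reported as mean or median.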

AHR [2] = biological target: T2, AHR (Homo sapiens, UniProt P35869); experiment: In vitro assay 1: antagonism in human cell line (AHR transactivation, firefly luciferase reporter, kynurenic acid prestimulated); type: cell-based; settings: AHR Antagonism Human IC50 [M]
T2 construct: U87 MG glioblastoma cells (ATCC #HTB-14) endogenously expressing AHR; endogenous in cells; host or cells: U87 MG glioblastoma cells (ATCC #HTB-14)
T2 sequence (P35869 11-848): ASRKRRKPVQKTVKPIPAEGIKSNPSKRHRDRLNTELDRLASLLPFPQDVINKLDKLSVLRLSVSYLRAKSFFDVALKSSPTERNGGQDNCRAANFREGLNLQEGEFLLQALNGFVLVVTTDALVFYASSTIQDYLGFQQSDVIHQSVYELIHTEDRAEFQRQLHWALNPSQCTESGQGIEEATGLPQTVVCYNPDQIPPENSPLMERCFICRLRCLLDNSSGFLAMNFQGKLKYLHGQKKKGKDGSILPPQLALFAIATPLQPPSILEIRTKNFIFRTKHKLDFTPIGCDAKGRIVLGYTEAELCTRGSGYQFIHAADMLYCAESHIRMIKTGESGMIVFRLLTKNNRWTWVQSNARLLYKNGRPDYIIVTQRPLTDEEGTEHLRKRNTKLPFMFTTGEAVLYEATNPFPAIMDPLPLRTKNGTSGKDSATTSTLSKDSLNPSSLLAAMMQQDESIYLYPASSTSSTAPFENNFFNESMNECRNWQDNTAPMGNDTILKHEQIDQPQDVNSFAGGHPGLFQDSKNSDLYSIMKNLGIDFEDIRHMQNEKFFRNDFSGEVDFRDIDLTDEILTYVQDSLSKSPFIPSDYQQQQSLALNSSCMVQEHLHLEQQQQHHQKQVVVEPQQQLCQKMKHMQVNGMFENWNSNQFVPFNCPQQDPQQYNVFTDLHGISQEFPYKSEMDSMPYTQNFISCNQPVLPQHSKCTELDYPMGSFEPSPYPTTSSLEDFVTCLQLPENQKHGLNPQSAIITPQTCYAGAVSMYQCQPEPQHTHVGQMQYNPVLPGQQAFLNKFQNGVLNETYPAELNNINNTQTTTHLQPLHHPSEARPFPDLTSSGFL
How it was run: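 U87 MG + DRE-firefly/constitutive-Renilla stable reporters; kynurenic acid prestim; dual-luc read; Renilla = tox; normalized vs pos/neg controls (pos: 150 μM KYNA + 5 μM staurosporine).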

[3] = Hepa 1c1c7 cells, firefly luciferase reporter

Structure (SMILES)	IC50 (AHR [1]; [3])	IC50 (AHR [2]; firefly luciferase reporter)	IC50 (AHR [1]; mouse Hepa 1c1c7 cells)	IC50 (AHR [2])
O=C1NCCNC[C@H]1Nc1nc2c(Br)cccc2c2nc(-c3cnn(CC4CCC4)c3)nn12 [Example 982, (6R)-6-({7-bromo-2-[1-(cyclobutylmethyl)-1H-pyrazol-4-yl][1,2,4]triazolo[1,5-c]quinazolin-5-yl}amino)-1,4-diazepan-5-one]	20.6 nM	9.42e-09 M		
O=C1NCCCC[C@H]1Nc1nc2ccccc2c2nc(-c3cnn(C4CCOCC4)c3)nn12 [Example 600, (3R)-3-({2-[1-(oxan-4-yl)-1H-pyrazol-4-yI][1,2,4]triazolo[1,5-c]quinazolin-5-yl}amino)azepan-2-one]			31.3 nM	4.48e-08 M
COc1ccc(-c2nc3c4cccc(Cl)c4nc(N[C@@H]4CNCCNC4=O)n3n2)cc1 [Example 421, (6R)-6-{[7-chloro-2-(4-methoxyphenyl)[1,2,4]triazolo[1,5-c]quinazolin-5-yl]amino)-1,4-diazepan-5-one]			0.69 nM	7.09e-10 M
COc1cccc(-c2nc3c4ccccc4nc(N[C@@H](C)C(N)=O)n3n2)c1 (single isomer, unassigned) [Example 86, N^2-[2-(3-methoxyphenyl)[1,2,4]triazolo[1,5-c]quinazolin-5-yl]alaninamide]			5.66 nM	5.1e-09 M
N#Cc1cccc(-c2nc3c4ccccc4nc(N[C@@H]4CCNC4=O)n3n2)c1 [Example 383, 3-(5-{[(3R)-2-oxopyrrolidin-3-yl]amino}[1,2,4]triazolo[1,5-c]quinazolin-2-yl)benzonitrile]			388 nM	1.39e-07 M
Cn1cc(-c2nc3c4cccc(C(F)(F)F)c4nc(N[C@@H]4CNCCNC4=O)n3n2)cn1 [Example 425, (6R)-6-{[2-(1-methyl-1H-pyrazol-4-yl)-7-(trifluoromethyl)[1,2,4]triazolo[1,5-c]quinazolin-5-yl]amino}-1,4-diazepan-5-one]			23.9 nM	6.84e-09 M
CCCCNC(=O)[C@H](CC)Nc1nc2c(Br)cccc2c2nc(-c3ccc(Cl)cc3OC(F)(F)F)nn12 [Example 813, (2S)-2-({7-bromo-2-[4-chloro-2-(trifluoromethoxy)phenyl][1,2,4]triazolo[1,5-c]quinazolin-5-yl}amino)-N-butylbutanamide]	1920 nM and > 2000 nM	> 2e-06 M		
Cc1cc(-c2nc3c4ccccc4nc(N[C@H]4CCCCNC4=O)n3n2)cs1 [Example 353]			27.4 nM	2.36e-07 M
COc1cccc(-c2nc3c4ccccc4nc(NC4CCN(C)C4=O)n3n2)c1 (single isomer, unassigned) [Example 122, 3-{[2-(3-methoxyphenyl)[1,2,4]triazolo[1,5-c]quinazolin-5-yl]amino}-1-methylpyrrolidin-2-one]			26.1 nM	5.55e-08 M
CC(C)n1cc(-c2nc3c4cccc(C5CC5)c4nc(N[C@@H]4CCCCNC4=O)n3n2)cn1 [Example 820, (3R)-3-({7-cyclopropyl-2-[1-(propan-2-yl)-1H-pyrazol-4-yl][1,2,4]triazolo[1,5-c]quinazolin-5-yl}amino)azepan-2-one]	71.5 nM	6.33e-09 M		
O=C1NCCCC[C@H]1Nc1nc2ccccc2c2nc(-c3ccncc3)nn12 [Example 126, (3R)-3-{[2-(pyridin-4-yl)[1,2,4]triazolo[1,5-c]quinazolin-5-yl]amino}azepan-2-one]			14.8 nM	1.3e-08 M
O=C1NCCCC[C@H]1Nc1nc2ccccc2c2nc(-c3cnn(CC4CC4)c3)nn12 [Example 602, (3R)-3-({2-[1-(cyclopropylmethyl)-1H-pyrazol-4-yl][1,2,4]triazolo[1,5-c]quinazolin-5-yl}amino)azepan-2-one]			2.69 nM	6.81e-09 M
COc1cccc(-c2nc3c4c(F)cccc4nc(N[C@@H]4CCCCNC4=O)n3n2)c1 [Example 185]			9.84 nM	1.05e-08 M
COc1ccc(-c2nc3c4ccccc4nc(N[C@@H]4CCNC4=O)n3n2)cc1 [Example 39, (3R)-3-{[2-(4-methoxyphenyl)[1,2,4]triazolo[1,5-c]quinazolin-5-yl]amino}pyrrolidin-2-one]			53.6 nM	1.59e-08 M
Cc1nnc(-c2nc3c4ccccc4nc(N[C@@H]4CCCCNC4=O)n3n2)o1 [Example 199, (3R)-3-{[2-(5-methyl-1,3,4-oxadiazol-2-yl)[1,2,4]triazolo[1,5-c]quinazolin-5-yl]amino}azepan-2-one]			114 nM	5.37e-07 M
Cc1ccc2nc(N[C@@H]3CCCCNC3=O)n3nc(-c4cnn(C)c4)nc3c2c1 [Example 158, (3R)-3-{[9-methyl-2-(1-methyl-1H-pyrazol-4-yl)[1,2,4]triazolo[1,5-c]quinazolin-5-yl]amino}azepan-2-one]			32.2 nM	1.77e-08 M
O=C1NCCCC[C@H]1Nc1nc2ccccc2c2nc(-c3ccc(F)cc3OC(F)(F)F)nn12 [Example 516, (3R)-3-({2-[4-fluoro-2-(trifluoromethoxy)phenyl][1,2,4]triazolo[1,5-c]quinazolin-5-yl}amino)azepan-2-one]			2.18 nM	4.64e-09 M
Cn1cc(-c2nc3c4c(Cl)cccc4nc(N[C@@H]4CNCCNC4=O)n3n2)cn1 [Example 417]			7300 nM	1.11e-06 M
CCn1cc(-c2nc3c4ccccc4nc(N[C@@H]4CCCCNC4=O)n3n2)cn1 [Example 67]			5.53 nM	6.43e-09 M
Cn1cc(-c2nc3c4cccc(C(F)(F)F)c4nc(N[C@@H]4CCCCNC4=O)n3n2)cn1 [Example 583, (3R)-3-{[2-(1-methyl-1H-pyrazol-4-yl)-7-(trifluoromethyl)[1,2,4]triazolo[1,5-c]quinazolin-5-yl]amino}azepan-2-one]			3.11 nM	9.48e-10 M
Cn1nccc1-c1nc2c3ccccc3nc(N[C@@H]3CCCCNC3=O)n2n1 [Example 65, (3R)-3-{[2-(1-methyl-1H-pyrazol-5-yl)[1,2,4]triazolo[1,5-c]quinazolin-5-yl]amino}azepan-2-one]			3.17 nM	6.42e-09 M
CCCNC(=O)[C@H](C)Nc1nc2c(Br)cccc2c2nc(-c3ccc(Cl)cc3OC(F)F)nn12 [Example 802, N^2-{7-bromo-2-[4-chloro-2-(difluoromethoxy)phenyl][1,2,4]triazolo[1,5-c]quinazolin-5-yl}-N-propyl-L-alaninamide]	12.5 nM	4.76e-08 M		
Cc1ccc2nc(N[C@@H]3CCCCNC3=O)n3nc(-c4cnn(C)c4)nc3c2c1C(F)F [Example 404, (3R)-3-{[10-(difluoromethyl)-9-methyl-2-(1-methyl-1H-pyrazol-4-yl)[1,2,4]triazolo[1,5-c]quinazolin-5-yl]amino}azepan-2-one]			2760 nM	3.39e-06 M
COCCNC(=O)[C@@H](C)Nc1nc2c(Br)cccc2c2nc(-c3ccc(OC)cc3)nn12 [Example 885, N^2-[7-bromo-2-(4-methoxyphenyl)[1,2,4]triazolo[1,5-c]quinazolin-5-yl]-N-(2-methoxyethyl)-D-alaninamide]	2.94 nM	1.24e-09 M		
